In patent US9844521B2, “Pharmaceutical composition comprising ginger extract or shogaol” (UNIVERSITY-INDUSTRY COOPERATION GROUP OF KYUNG HEE …, priority 2008, dated 2017):

Key:
PC12 cells = test: Neurite outgrowth of PC12 cells treated with conditioned media of C6 cells; format: cell-based, mouse; settings: 20 μM in C6 conditioned media, microscope, fourth day after treatment
Method: This test was performed using a glioma C6 cell line of […] which is known as a cell line that secretes a nerve growth factor (NGF), and a pheochromocytoma PC12 cell line of […] which is known as a cell line that grows neurite with respect to an NGF in a similar way as a neuron. C6 cells and PC12 cells were obtained from Korean Cell Line Bank (KCLB Nos. 10107 and 21721, respectively). C6 cells were cultured using DMEM media (Gibco BRL, USA) supplemented with 3.4 g/L of sodium bicarbonate (NaHCO3), 10% fetal bovine serum, and 1% penicillin-streptomycin antibiotics (10000 U/ml), and PC12 cells were cultured using RPMI1640 medium (Gibco BRL, USA) supplemented with 2.0 g/L of sodium bicarbonate, 10% horse serum, 5% fetal bovine serum, and 1% penicillin-streptomycin antibiotics (10000 U/ml). […]
C6 cells attached to a 100 mm culture vessel were separated from the culture vessel by using 0.25% Trypsin-EDTA (Gibco BRL, USA), and then 10 ml of fresh medium was added to the cells to prepare a cell suspension. Then, the number of viable cells was counted and calculated by using a cell number counter. The cells were divided based on the counted cell number such that 2×10^6 cells were contained in a 100 mm culture dish. […]

C6 cells = test: Nerve growth factor secretion induction in C6 cells (NGF measurement kit); format: cell-based, mouse; settings: conditioned media of C6 cells, mean±standard deviation
Method: This test was performed using a glioma C6 cell line of […] which is known as a cell line that secretes a nerve growth factor (NGF), and a pheochromocytoma PC12 cell line of […] which is known as a cell line that grows neurite with respect to an NGF in a similar way as a neuron. C6 cells and PC12 cells were obtained from Korean Cell Line Bank (KCLB Nos. 10107 and 21721, respectively). C6 cells were cultured using DMEM media (Gibco BRL, USA) supplemented with 3.4 g/L of sodium bicarbonate (NaHCO3), 10% fetal bovine serum, and 1% penicillin-streptomycin antibiotics (10000 U/ml), and PC12 cells were cultured using RPMI1640 medium (Gibco BRL, USA) supplemented with 2.0 g/L of sodium bicarbonate, 10% horse serum, 5% fetal bovine serum, and 1% penicillin-streptomycin antibiotics (10000 U/ml). The fetal bovine serum and the horse serum were inactivated at a temperature of 55[…] for 30 minutes before use, and all of the cells were cultured in a cell culture vessel with a humidity of 70% at a temperature of 37[…] to which 5% carbon dioxide was supplied. Regarding the PC12 cells, the cells were cultured in a culture vessel that was surface-coated with poly-D-lysine (Sigma) diluted with 50 μg/ml of a PBS buffer solution (pH 7.2) for 1 hour and then washed three times with a PBS buffer solution. Shogaol used was obtained from WAKO Company (Japan).
C6 cells attached to a 100 mm culture vessel were separated from the culture vessel by using 0.25% Trypsin-EDTA (Gibco BRL, USA), and then 10 ml of fresh medium was added to the cells to prepare a cell suspension. Then, the number of viable cells was counted and calculated by using a cell number counter. The cells were divided based on the counted cell number such that 2×10^6 cells were contained in a 100 mm culture dish. After 24 hours of cultivation, the used media was removed and replaced with 10 ml of a DMEM medium containing 2% fetal bovine serum, to which 100 ug/ml of each of the ethanol extract, the n-hexane fraction, the ethyl acetate fraction, the n-butanol fraction, and the water fraction prepared according to Example 1 was added. After 24 hours of cultivation, the respective media were obtained. The obtained media were centrifuged at a rate of 1500 rpm for 10 minutes and then a supernatant was collected, and these media (conditioned media) were used to treat PC12 cells.
The C6 cells were divided and treated with 0.1, 1, 5, 10, and 20 μM of shogaol in the same manner as in Experimental Example 1-1 to prepare conditioned media.
A nerve growth factor secreted from C6 cells by shogaol was quantified by treating a nerve growth factor measurement kit (DY556, R&D system, USA) with the conditioned media. In order to identify an effect of shogaol on nerve growth factor secretion induction, a nerve growth factor in the conditioned media prepared by culturing C6 cells after the cells were treated with shogaol was quantified and the results are shown in FIG. 2.

[1] = tested on: 2-vessel occlusion cerebral ischemia model; test: 2-vessel occlusion cerebral ischemia model, neurons in CA1 of hippocampus; format: in vivo, mouse; settings: 10 mg/kg in 10% tween 80, immediately after 2VO then once per day for 3 days
Method: 7-week old C57BL/6 based male mice (19-22 g) were obtained and nurtured in an animal laboratory at Kyunghee University Graduate School of East-West Medicine Science for one week or more for adaptation. Water and feed were freely supplied, and the temperature (22±2[…]), humidity (53±3%), and a cycle of brightness and darkness (12 hours) were automatically controlled.
Mice were divided into three groups, each of which consisted of 10 mice. Anesthesia was induced in an anesthetic gas (O2: 30%, N2O: 70%, and isoflurane: 2.0%) chamber, and mice of the respective groups were located on an operating table with their backs on the operating table. The skin of each mouse was cut upward by about 1.5 cm from a point where the upper limbs and an intermediate line meet, and then, facing common carotid arteries were exposed without damage of tissues. Tissues and nerves attached to the carotid arteries were dissociated and occlusion was performed thereon by using an aneurism clip for 25 minutes. In this regard, the temperature of the mice was measured by using a rectal thermometer and maintained at 37±0.5 □.
A sham control refers to a group obtained as described above except for the occlusion of the common carotid arteries. Medicine administration was performed immediately after a 2VO step, and thereafter, performed once per day for 3 days. […]

SD rats = test: Acute toxicity test; settings: 0.1 mg/10 ml/kg to 5000 mg/10 ml/kg, 2 weeks

Compound: CCCCC/C=C/C(=O)CCc1ccc(O)c(OC)c1 [shogaol, (E)-1-(4-hydroxy-3-methoxyphenyl)dec-4-en-3-one]
- growth of neurite of the PC12 cells (PC12 cells): increased
- secretion amount of a nerve growth factor (C6 cells; 0.1 μM): 105.46±7.27 % of a control
- secretion amount of a nerve growth factor (C6 cells; 1 μM): 112.72±3.67 % of a control
- secretion amount of a nerve growth factor (C6 cells; 5 μM): 112.97±4.97 % of a control
- secretion amount of a nerve growth factor (C6 cells; 10 μM): 119.44±5.18 % of a control
- secretion amount of a nerve growth factor (C6 cells; 20 μM): 124.81±5.61 % of a control
- neuron apoptosis suppression efficacy in CA1 [1]: 29.5±15.4 % of the 2VO step group
- body weight (SD rats): weight change with respect to a test material did not occur
- general symptom (SD rats): abnormal symptoms with respect to a test material were not found
